Source: patent US8247211B2, “Glycopeptide antibiotics” (American Cyanamid Company, priority 2001, dated 2012)
Values after ≈ are worked out from the molar mass of the structure shown. Blank lines part the entries; values can stand above or below the compound they belong to.

What was measured:
Experiment in all cases: In vitro antibacterial evaluation: minimum inhibitory concentration (MIC), broth dilution method
Assay type in all cases: cell-based
Staphylococcus sp. = conditions: for MIC Staphylococcus aureus (ATCC 29213): strain ATCC 29213; for MIC Staphylococcus aureus (GC 1131): strain GC 1131; for MIC Staphylococcus aureus (GC 3051): strain GC 3051; for MIC Staphylococcus aureus (GC 3053): strain GC 3053; for MIC Staphylococcus aureus (GC 4541): strain GC 4541; for MIC Staphylococcus aureus (GC 4542): strain GC 4542; for MIC Staphylococcus aureus-SMITH (GC 4543): strain GC 4543; for MIC Staphylococcus aureus (GC 4544): strain GC 4544; for MIC Staphylococcus aureus (GC 4545): strain GC 4545; for MIC Staphylococcus haemolyticus (GC 4546): strain GC 4546; for MIC Coagulase Negative Staphylococcus (GC 4547): strain GC 4547; for MIC Coagulase Negative Staphylococcus (GC 4548): strain GC 4548; for MIC Coagulase Negative Staphylococcus (GC 4549): strain GC 4549; for MIC Coagulase Negative Staphylococcus (GC 4551): strain GC 4551; for MIC Coagulase Negative Staphylococcus (GC 6257): strain GC 6257
Method: (§1) The minimum inhibitory concentration (MIC), the lowest concentration of the antibiotic which inhibits growth of the test organism, is determined by the broth dilution method using Muller-Hinton II […] (Baltimore Biological Laboratories) following the recommendations of the National Committee for Clinical Laboratory Standards [Methods for dilution antimicrobial susceptibility tests for bacteria that grow aerobically, approved standard M7-A2, National Committee for Clinical Laboratory Standards, Villanova, Pa].
(§2) An inoculum level of 5×10^5 CFU/mL, and a range of antibiotic concentrations (64-0.06 μg/mL) is used. […] The test organisms include a spectrum of Gram-positive bacteria comprised of Staphylococcus sp., Streptococcus sp. and Enterococcus sp. These organisms include recent clinical isolates that are resistant to methicillin, penicillin and/or vancomycin.

Escherichia coli = conditions: 5×10^5 CFU/mL, 18 hours at 35° C.
Method: as §1, §2

Streptococcus sp. = conditions: broth dilution, 5×10^5 CFU/mL, 18 hours at 35° C.
Method: as §1, §2

Enterococcus sp. = conditions: broth dilution, 5×10^5 CFU/mL, 18 hours at 35° C.
Method: as §1, §2

[1] = broth dilution, 18 hours at 35° C.

MIC Staphylococcus aureus (ATCC 29213) (Staphylococcus sp.): 2 µg/mL (≈ 1.43 µM) | MIC Staphylococcus aureus (ATCC 29213) (Staphylococcus sp.; [1]): 2 µg/mL (≈ 1.43 µM) | MIC Staphylococcus aureus (GC 1131) (Staphylococcus sp.): 2 µg/mL (≈ 1.43 µM) | MIC Staphylococcus aureus (GC 1131) (Staphylococcus sp.; [1]): 2 µg/mL (≈ 1.43 µM) | MIC Staphylococcus aureus (GC 3051) (Staphylococcus sp.): 2 µg/mL (≈ 1.43 µM) | MIC Staphylococcus aureus (GC 3051) (Staphylococcus sp.; [1]): 2 µg/mL (≈ 1.43 µM) | MIC Staphylococcus aureus (GC 3053) (Staphylococcus sp.): 2 µg/mL (≈ 1.43 µM) | MIC Staphylococcus aureus (GC 3053) (Staphylococcus sp.; [1]): 2 µg/mL (≈ 1.43 µM) | MIC Staphylococcus aureus (GC 4541) (Staphylococcus sp.): 2 µg/mL (≈ 1.43 µM) | MIC Staphylococcus aureus (GC 4541) (Staphylococcus sp.; [1]): 2 µg/mL (≈ 1.43 µM) | MIC Staphylococcus aureus (GC 4542) (Staphylococcus sp.): 2 µg/mL (≈ 1.43 µM) | MIC Staphylococcus aureus (GC 4542) (Staphylococcus sp.; [1]): 2 µg/mL (≈ 1.43 µM) | MIC Staphylococcus aureus-SMITH (GC 4543) (Staphylococcus sp.; 18 hours at 35° C.): 2 µg/mL (≈ 1.43 µM) | MIC Staphylococcus aureus-SMITH (GC 4543) (Staphylococcus sp.; [1]): 2 µg/mL (≈ 1.43 µM) | MIC Staphylococcus aureus (GC 4544) (Staphylococcus sp.): 1 µg/mL (≈ 0.713 µM) | MIC Staphylococcus aureus (GC 4544) (Staphylococcus sp.; [1]): 1 µg/mL (≈ 0.713 µM) | MIC Staphylococcus aureus (GC 4545) (Staphylococcus sp.): 2 µg/mL (≈ 1.43 µM) | MIC Staphylococcus aureus (GC 4545) (Staphylococcus sp.; [1]): 2 µg/mL (≈ 1.43 µM) | MIC Coagulase Negative Staphylococcus (GC 4547) (Staphylococcus sp.): 2 µg/mL (≈ 1.43 µM) | MIC Coagulase Negative Staphylococcus (GC 4547) (Staphylococcus sp.; [1]): 2 µg/mL (≈ 1.43 µM) | MIC Coagulase Negative Staphylococcus (GC 4548) (Staphylococcus sp.): 1 µg/mL (≈ 0.713 µM) | MIC Coagulase Negative Staphylococcus (GC 4548) (Staphylococcus sp.; [1]): 1 µg/mL (≈ 0.713 µM) | MIC Coagulase Negative Staphylococcus (GC 4549) (Staphylococcus sp.): 1 µg/mL (≈ 0.713 µM) | MIC Coagulase Negative Staphylococcus (GC 4549) (Staphylococcus sp.; [1]): 1 µg/mL (≈ 0.713 µM) | MIC Coagulase Negative Staphylococcus (GC 4551) (Staphylococcus sp.): 2 µg/mL (≈ 1.43 µM) | MIC Coagulase Negative Staphylococcus (GC 4551) (Staphylococcus sp.; [1]): 2 µg/mL (≈ 1.43 µM) | MIC Coagulase Negative Staphylococcus (GC 6257) (Staphylococcus sp.): 1 µg/mL (≈ 0.713 µM) | MIC Coagulase Negative Staphylococcus (GC 6257) (Staphylococcus sp.; [1]): 1 µg/mL (≈ 0.713 µM) | MIC Escherichia coli (ATCC 25922) (Escherichia coli): 32 µg/mL (≈ 22.8 µM) | MIC Escherichia coli (GC 4559) (Escherichia coli): 32 µg/mL (≈ 22.8 µM) | MIC Escherichia coli (GC 4560) (Escherichia coli): 2 µg/mL (≈ 1.43 µM) | MIC Streptococcus agalactiae (GC 4564) (Streptococcus sp.): 0.12 µg/mL (≈ 0.0855 µM) | MIC Streptococcus pneumoniae (GC 1894) (Streptococcus sp.): <0.06 µg/mL | MIC Streptococcus pneumoniae (GC 4565) (Streptococcus sp.): 0.12 µg/mL (≈ 0.0855 µM) | MIC Streptococcus pneumonine (ATCC 6301) (Streptococcus sp.): <0.06 µg/mL | MIC Streptococcus pyogenes (GC 4563) (Streptococcus sp.): <0.06 µg/mL | MIC Enterococccus avium (GC 4558) (Enterococcus sp.): 2 µg/mL (≈ 1.43 µM) | MIC Enterococccus faecalis (ATCC 29212) (Enterococcus sp.): 2 µg/mL (≈ 1.43 µM) | MIC Enterococccus faecalis (GC 2691) (Enterococcus sp.): 2 µg/mL (≈ 1.43 µM) | MIC Enterococccus faecalis (GC 3059) (Enterococcus sp.): 2 µg/mL (≈ 1.43 µM) | MIC Enterococccus faecalis (GC 4552) (Enterococcus sp.): 2 µg/mL (≈ 1.43 µM) | MIC Enterococccus faecalis (GC 4553) (Enterococcus sp.): 4 µg/mL (≈ 2.85 µM) | MIC Enterococccus faecalis (GC 4554) (Enterococcus sp.): 2 µg/mL (≈ 1.43 µM) | MIC Enterococccus faecalis (GC 6189) (Enterococcus sp.): 2 µg/mL (≈ 1.43 µM) | MIC Enterococccus faecium (GC 2243) (Enterococcus sp.): 2 µg/mL (≈ 1.43 µM) | MIC Enterococccus faecium (GC 4556) (Enterococcus sp.): 2 µg/mL (≈ 1.43 µM) | MIC Enterococccus faecium (GC 4557) (Enterococcus sp.): 4 µg/mL (≈ 2.85 µM) | MIC Enterococcus faecalis (GC 2242) (Enterococcus sp.): 2 µg/mL (≈ 1.43 µM)
Structure (SMILES): CC(c1ccccc1)C1NC(=O)CNC(=O)C(CO)NC(=O)C(C(O)C2CNC(=N)N2C2OC(CO)C(O)C(O)C2O)NC(=O)C(C(O)C2CNC(=N)N2)NC(=O)C(Cc2ccc(OC3OC(CO)C(OC4OC5COC(CC6CCCCC6)OC5C(O)C4O)C(O)C3O)cc2)NC1=O (stereo not shown) [Example 122]
MIC Staphylococcus haemolyticus (GC 4546) (Staphylococcus sp.): 2 µg/mL (≈ 1.43 µM) | MIC Staphylococcus haemolyticus (GC 4546) (Staphylococcus sp.; [1]): 2 µg/mL (≈ 1.43 µM)

MIC Staphylococcus aureus (ATCC 29213) (Staphylococcus sp.): 8 µg/mL (≈ 5.76 µM) | MIC Staphylococcus aureus (ATCC 29213) (Staphylococcus sp.; [1]): 8 µg/mL (≈ 5.76 µM) | MIC Staphylococcus aureus (GC 1131) (Staphylococcus sp.): 8 µg/mL (≈ 5.76 µM) | MIC Staphylococcus aureus (GC 1131) (Staphylococcus sp.; [1]): 8 µg/mL (≈ 5.76 µM) | MIC Staphylococcus aureus (GC 3051) (Staphylococcus sp.): 8 µg/mL (≈ 5.76 µM) | MIC Staphylococcus aureus (GC 3051) (Staphylococcus sp.; [1]): 8 µg/mL (≈ 5.76 µM) | MIC Staphylococcus aureus (GC 3053) (Staphylococcus sp.): 8 µg/mL (≈ 5.76 µM) | MIC Staphylococcus aureus (GC 3053) (Staphylococcus sp.; [1]): 8 µg/mL (≈ 5.76 µM) | MIC Staphylococcus aureus (GC 4541) (Staphylococcus sp.): 4 µg/mL (≈ 2.88 µM) | MIC Staphylococcus aureus (GC 4541) (Staphylococcus sp.; [1]): 4 µg/mL (≈ 2.88 µM) | MIC Staphylococcus aureus (GC 4542) (Staphylococcus sp.): 4 µg/mL (≈ 2.88 µM) | MIC Staphylococcus aureus (GC 4542) (Staphylococcus sp.; [1]): 4 µg/mL (≈ 2.88 µM) | MIC Staphylococcus aureus-SMITH (GC 4543) (Staphylococcus sp.; 18 hours at 35° C.): 4 µg/mL (≈ 2.88 µM) | MIC Staphylococcus aureus-SMITH (GC 4543) (Staphylococcus sp.; [1]): 4 µg/mL (≈ 2.88 µM) | MIC Staphylococcus aureus (GC 4544) (Staphylococcus sp.): 8 µg/mL (≈ 5.76 µM) | MIC Staphylococcus aureus (GC 4544) (Staphylococcus sp.; [1]): 8 µg/mL (≈ 5.76 µM) | MIC Staphylococcus aureus (GC 4545) (Staphylococcus sp.): 8 µg/mL (≈ 5.76 µM) | MIC Staphylococcus aureus (GC 4545) (Staphylococcus sp.; [1]): 8 µg/mL (≈ 5.76 µM) | MIC Coagulase Negative Staphylococcus (GC 4547) (Staphylococcus sp.): 8 µg/mL (≈ 5.76 µM) | MIC Coagulase Negative Staphylococcus (GC 4547) (Staphylococcus sp.; [1]): 8 µg/mL (≈ 5.76 µM) | MIC Coagulase Negative Staphylococcus (GC 4548) (Staphylococcus sp.): 4 µg/mL (≈ 2.88 µM) | MIC Coagulase Negative Staphylococcus (GC 4548) (Staphylococcus sp.; [1]): 4 µg/mL (≈ 2.88 µM) | MIC Coagulase Negative Staphylococcus (GC 4549) (Staphylococcus sp.): 4 µg/mL (≈ 2.88 µM) | MIC Coagulase Negative Staphylococcus (GC 4549) (Staphylococcus sp.; [1]): 4 µg/mL (≈ 2.88 µM) | MIC Coagulase Negative Staphylococcus (GC 4551) (Staphylococcus sp.): 8 µg/mL (≈ 5.76 µM) | MIC Coagulase Negative Staphylococcus (GC 4551) (Staphylococcus sp.; [1]): 8 µg/mL (≈ 5.76 µM) | MIC Coagulase Negative Staphylococcus (GC 6257) (Staphylococcus sp.): 4 µg/mL (≈ 2.88 µM) | MIC Coagulase Negative Staphylococcus (GC 6257) (Staphylococcus sp.; [1]): 4 µg/mL (≈ 2.88 µM) | MIC Escherichia coli (ATCC 25922) (Escherichia coli): >64 µg/mL | MIC Escherichia coli (GC 4559) (Escherichia coli): >64 µg/mL | MIC Escherichia coli (GC 4560) (Escherichia coli): 8 µg/mL (≈ 5.76 µM) | MIC Streptococcus agalactiae (GC 4564) (Streptococcus sp.): 2 µg/mL (≈ 1.44 µM) | MIC Streptococcus pneumoniae (GC 1894) (Streptococcus sp.): 1 µg/mL (≈ 0.72 µM) | MIC Streptococcus pneumoniae (GC 4565) (Streptococcus sp.): 2 µg/mL (≈ 1.44 µM) | MIC Streptococcus pneumonine (ATCC 6301) (Streptococcus sp.): 1 µg/mL (≈ 0.72 µM) | MIC Streptococcus pyogenes (GC 4563) (Streptococcus sp.): 0.5 µg/mL (≈ 0.36 µM) | MIC Enterococccus avium (GC 4558) (Enterococcus sp.): 16 µg/mL (≈ 11.5 µM) | MIC Enterococccus faecalis (ATCC 29212) (Enterococcus sp.): 8 µg/mL (≈ 5.76 µM) | MIC Enterococccus faecalis (GC 2691) (Enterococcus sp.): 16 µg/mL (≈ 11.5 µM) | MIC Enterococccus faecalis (GC 3059) (Enterococcus sp.): 16 µg/mL (≈ 11.5 µM) | MIC Enterococccus faecalis (GC 4552) (Enterococcus sp.): 8 µg/mL (≈ 5.76 µM) | MIC Enterococccus faecalis (GC 4553) (Enterococcus sp.): 16 µg/mL (≈ 11.5 µM) | MIC Enterococccus faecalis (GC 4554) (Enterococcus sp.): 16 µg/mL (≈ 11.5 µM) | MIC Enterococccus faecalis (GC 6189) (Enterococcus sp.): 8 µg/mL (≈ 5.76 µM) | MIC Enterococccus faecium (GC 2243) (Enterococcus sp.): 8 µg/mL (≈ 5.76 µM) | MIC Enterococccus faecium (GC 4556) (Enterococcus sp.): 8 µg/mL (≈ 5.76 µM) | MIC Enterococccus faecium (GC 4557) (Enterococcus sp.): 8 µg/mL (≈ 5.76 µM) | MIC Enterococcus faecalis (GC 2242) (Enterococcus sp.): 8 µg/mL (≈ 5.76 µM)
Structure (SMILES): CC(C)=CCCC1OCC2OC(OC3C(CO)OC(Oc4ccc(CC5NC(=O)C(C(C)c6ccccc6)NC(=O)CNC(=O)C(CO)NC(=O)C(C(O)C6CNC(=N)N6C6OC(CO)C(O)C(O)C6O)NC(=O)C(C(O)C6CNC(=N)N6)NC5=O)cc4)C(O)C3O)C(O)C(O)C2O1 (stereo not drawn) [Example 123, Cyclo[glycyl-β-methylphenylalanyl-O-[4-O-[4,6-O-[5-methylhex-4-en-1-ylidene)hexopyranosyl]hexopyranosyl]tyrosyl-3-[2-iminoimidazolidin-4-yl)seryl-3-(3-hexopyranosyl-2-iminoimidazolidin-4-yl)serylseryl]]
MIC Staphylococcus haemolyticus (GC 4546) (Staphylococcus sp.): 8 µg/mL (≈ 5.76 µM) | MIC Staphylococcus haemolyticus (GC 4546) (Staphylococcus sp.; [1]): 8 µg/mL (≈ 5.76 µM)
